Test results as given in PubChem BioAssay AID2060896 (Molecular Pharmacology Branch, DTP, NCI, 2025).

Test system: 941728-121-R-J1-PDC complex spheroid viability
Experiment: Anticancer human tumor 941728-121-R-J1-PDC patient-derived lung adenocarcinoma cell line growth inhibition [RAS]
Settings: for IC50: curve of first compound; for viability, T/C: stronger effect = lower value
Method in brief: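 Multi-cell-type spheroids: tumor cells plus HUVEC endothelial cells and mesenchymal stem cells. RAS-pathway inhibitors were combined with targeted agents, each dosed in half-log steps down from clinical Cmax, or from 10 microM when Cmax was unknown.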

[1] = second compound 0.000949 µM, first compound 0.00316 µM
[2] = second compound 0.000949 µM, first compound 0.01 µM
[3] = second compound 0.000949 µM, first compound 0.0316 µM
[4] = second compound 0.000949 µM, first compound 0.1 µM
[5] = second compound 0.000949 µM, first compound 0.316 µM
[6] = second compound 0.000949 µM, first compound 1 µM
[7] = second compound 0.003 µM, first compound 0.00316 µM
[8] = second compound 0.003 µM, first compound 0.01 µM
[9] = second compound 0.003 µM, first compound 0.0316 µM
[10] = second compound 0.003 µM, first compound 0.1 µM
[11] = second compound 0.003 µM, first compound 0.316 µM
[12] = second compound 0.003 µM, first compound 1 µM
[13] = second compound 0.00949 µM, first compound 0.00316 µM
[14] = second compound 0.00949 µM, first compound 0.01 µM
[15] = second compound 0.00949 µM, first compound 0.0316 µM
[16] = second compound 0.00949 µM, first compound 0.1 µM
[17] = second compound 0.00949 µM, first compound 0.316 µM
[18] = second compound 0.00949 µM, first compound 1 µM
[19] = second compound 0.03 µM, first compound 0.00316 µM
[20] = second compound 0.03 µM, first compound 0.01 µM
[21] = second compound 0.03 µM, first compound 0.0316 µM
[22] = second compound 0.03 µM, first compound 0.1 µM
[23] = second compound 0.03 µM, first compound 0.316 µM
[24] = second compound 0.03 µM, first compound 1 µM
[25] = second compound 0.0949 µM, first compound 0.00316 µM
[26] = second compound 0.0949 µM, first compound 0.01 µM
[27] = second compound 0.0949 µM, first compound 0.0316 µM
[28] = second compound 0.0949 µM, first compound 0.1 µM
[29] = second compound 0.0949 µM, first compound 0.316 µM
[30] = second compound 0.0949 µM, first compound 1 µM
[31] = second compound 0.3 µM, first compound 0.00316 µM
[32] = second compound 0.3 µM, first compound 0.01 µM
[33] = second compound 0.3 µM, first compound 0.0316 µM
[34] = second compound 0.3 µM, first compound 0.1 µM
[35] = second compound 0.3 µM, first compound 0.316 µM
[36] = second compound 0.3 µM, first compound 1 µM
[37] = second compound 0.000949 µM, first compound 3.16 µM
[38] = second compound 0.000949 µM, first compound 10 µM
[39] = second compound 0.003 µM, first compound 3.16 µM
[40] = second compound 0.003 µM, first compound 10 µM
[41] = second compound 0.00949 µM, first compound 3.16 µM
[42] = second compound 0.00949 µM, first compound 10 µM
[43] = second compound 0.03 µM, first compound 3.16 µM
[44] = second compound 0.03 µM, first compound 10 µM
[45] = second compound 0.0949 µM, first compound 3.16 µM
[46] = second compound 0.0949 µM, first compound 10 µM
[47] = second compound 0.3 µM, first compound 3.16 µM
[48] = second compound 0.3 µM, first compound 10 µM
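Note: spheroids exposed to compounds for 7 days before readout.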
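Throughout, for viability, T/C: 100% = DMSO vehicle control viability.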

C=CC(=O)Nc1cc(Nc2nccc(-c3cn(C)c4ccccc34)n2)c(OC)cc1N(C)CCN(C)C + CCn1c(-c2cc(N3CCN(C)CC3)cnc2C(C)OC)c2c3cc(ccc31)-c1csc(n1)CC(NC(=O)C1CC1C)C(=O)N1CCCC(N1)C(=O)OCC(C)(C)C2
IC50 (second compound 0.000949 µM): < 3.16 nM
IC50 (second compound 0.003 µM): < 3.16 nM
IC50 (second compound 0.00949 µM): < 3.16 nM
IC50 (second compound 0.03 µM): < 3.16 nM
IC50 (second compound 0.0949 µM): < 3.16 nM
IC50 (second compound 0.3 µM): < 3.16 nM
viability, T/C [1]: 29.3%
viability, T/C [2]: 29.5%
viability, T/C [3]: 22.1%
viability, T/C [4]: 23.4%
viability, T/C [5]: 24.8%
viability, T/C [6]: 14%
viability, T/C [7]: 25.4%
viability, T/C [8]: 20.8%
viability, T/C [9]: 17.2%
viability, T/C [10]: 18.8%
viability, T/C [11]: 15.5%
viability, T/C [12]: 8.05%
viability, T/C [13]: 16.4%
viability, T/C [14]: 15%
viability, T/C [15]: 14.4%
viability, T/C [16]: 14.4%
viability, T/C [17]: 13.7%
viability, T/C [18]: 9.82%
viability, T/C [19]: 15.8%
viability, T/C [20]: 14.8%
viability, T/C [21]: 15.7%
viability, T/C [22]: 14.6%
viability, T/C [23]: 10.7%
viability, T/C [24]: 12%
viability, T/C [25]: 12.9%
viability, T/C [26]: 14.7%
viability, T/C [27]: 14.6%
viability, T/C [28]: 16.5%
viability, T/C [29]: 10.3%
viability, T/C [30]: 13.9%
viability, T/C [31]: 13.1%
viability, T/C [32]: 14.1%
viability, T/C [33]: 15%
viability, T/C [34]: 12.4%
viability, T/C [35]: 10.7%
viability, T/C [36]: 11.6%

CC(C)NCC(C(=O)N1CCN(c2ncnc3c2C(C)CC3O)CC1)c1ccc(Cl)cc1 (stereo not drawn) + CCn1c(-c2cc(N3CCN(C)CC3)cnc2C(C)OC)c2c3cc(ccc31)-c1csc(n1)CC(NC(=O)C1CC1C)C(=O)N1CCCC(N1)C(=O)OCC(C)(C)C2
IC50 (second compound 0.000949 µM): < 31.6 nM
IC50 (second compound 0.003 µM): < 31.6 nM
IC50 (second compound 0.00949 µM): < 31.6 nM
IC50 (second compound 0.03 µM): < 31.6 nM
IC50 (second compound 0.0949 µM): < 31.6 nM
IC50 (second compound 0.3 µM): < 31.6 nM
viability, T/C [3]: 28.7%
viability, T/C [4]: 28.3%
viability, T/C [5]: 18.8%
viability, T/C [6]: 20.1%
viability, T/C [37]: 19%
viability, T/C [38]: 10.4%
viability, T/C [9]: 22.7%
viability, T/C [10]: 23.5%
viability, T/C [11]: 16.5%
viability, T/C [12]: 20.5%
viability, T/C [39]: 14.6%
viability, T/C [40]: 8.01%
viability, T/C [15]: 17.7%
viability, T/C [16]: 14.9%
viability, T/C [17]: 15.2%
viability, T/C [18]: 12.3%
viability, T/C [41]: 9.47%
viability, T/C [42]: 5.47%
viability, T/C [21]: 13.1%
viability, T/C [22]: 14%
viability, T/C [23]: 14.2%
viability, T/C [24]: 11.3%
viability, T/C [43]: 8.42%
viability, T/C [44]: 4.92%
viability, T/C [27]: 12.4%
viability, T/C [28]: 13.6%
viability, T/C [29]: 11.9%
viability, T/C [30]: 12.1%
viability, T/C [45]: 5.65%
viability, T/C [46]: 5.14%
viability, T/C [33]: 11.1%
viability, T/C [34]: 14.2%
viability, T/C [35]: 13.5%
viability, T/C [36]: 10%
viability, T/C [47]: 8.91%
viability, T/C [48]: 4.65%

CC(Nc1ccc2c(c1)OCCn1cc(N3C(=O)OCC3C(F)F)nc1-2)C(N)=O (stereo not drawn) + CCn1c(-c2cc(N3CCN(C)CC3)cnc2C(C)OC)c2c3cc(ccc31)-c1csc(n1)CC(NC(=O)C1CC1C)C(=O)N1CCCC(N1)C(=O)OCC(C)(C)C2
IC50 (second compound 0.000949 µM): < 31.6 nM
IC50 (second compound 0.003 µM): < 31.6 nM
IC50 (second compound 0.00949 µM): < 31.6 nM
IC50 (second compound 0.03 µM): < 31.6 nM
IC50 (second compound 0.0949 µM): < 31.6 nM
IC50 (second compound 0.3 µM): < 31.6 nM
viability, T/C [3]: 26%
viability, T/C [4]: 23.3%
viability, T/C [5]: 18.9%
viability, T/C [6]: 21.3%
viability, T/C [37]: 20.5%
viability, T/C [38]: 12.1%
viability, T/C [9]: 19.4%
viability, T/C [10]: 15.9%
viability, T/C [11]: 13.4%
viability, T/C [12]: 14.2%
viability, T/C [39]: 11.7%
viability, T/C [40]: 7.42%
viability, T/C [15]: 14.2%
viability, T/C [16]: 10.3%
viability, T/C [17]: 11.2%
viability, T/C [18]: 9.14%
viability, T/C [41]: 7.89%
viability, T/C [42]: 5.97%
viability, T/C [21]: 12.3%
viability, T/C [22]: 10.6%
viability, T/C [23]: 10.1%
viability, T/C [24]: 8.95%
viability, T/C [43]: 11.8%
viability, T/C [44]: 6.96%
viability, T/C [27]: 11.5%
viability, T/C [28]: 8.85%
viability, T/C [29]: 9.23%
viability, T/C [30]: 8.74%
viability, T/C [45]: 7.5%
viability, T/C [46]: 6.53%
viability, T/C [33]: 11.4%
viability, T/C [34]: 9.97%
viability, T/C [35]: 9.41%
viability, T/C [36]: 6.86%
viability, T/C [47]: 6.29%
viability, T/C [48]: 6.96%

O=C(c1ccc(F)c(F)c1Nc1ccc(I)cc1F)N1CC(O)([C@@H]2CCCCN2)C1 + CCn1c(-c2cc(N3CCN(C)CC3)cnc2C(C)OC)c2c3cc(ccc31)-c1csc(n1)CC(NC(=O)C1CC1C)C(=O)N1CCCC(N1)C(=O)OCC(C)(C)C2
IC50 (second compound 0.000949 µM): < 3.16 nM
IC50 (second compound 0.003 µM): < 3.16 nM
IC50 (second compound 0.00949 µM): < 3.16 nM
IC50 (second compound 0.03 µM): < 3.16 nM
IC50 (second compound 0.0949 µM): < 3.16 nM
IC50 (second compound 0.3 µM): < 3.16 nM
viability, T/C [1]: 26%
viability, T/C [2]: 26.8%
viability, T/C [3]: 15.6%
viability, T/C [4]: 19.6%
viability, T/C [5]: 16.4%
viability, T/C [6]: 8.5%
viability, T/C [7]: 21.8%
viability, T/C [8]: 17.2%
viability, T/C [9]: 15.4%
viability, T/C [10]: 14.5%
viability, T/C [11]: 12.3%
viability, T/C [12]: 13.5%
viability, T/C [13]: 15.1%
viability, T/C [14]: 11%
viability, T/C [15]: 12.7%
viability, T/C [16]: 12.7%
viability, T/C [17]: 12%
viability, T/C [18]: 8.59%
viability, T/C [19]: 13.4%
viability, T/C [20]: 12.9%
viability, T/C [21]: 12.2%
viability, T/C [22]: 12.7%
viability, T/C [23]: 8.4%
viability, T/C [24]: 10.3%
viability, T/C [25]: 12.6%
viability, T/C [26]: 12.5%
viability, T/C [27]: 12.3%
viability, T/C [28]: 12.4%
viability, T/C [29]: 11%
viability, T/C [30]: 10.8%
viability, T/C [31]: 12%
viability, T/C [32]: 11.5%
viability, T/C [33]: 12.7%
viability, T/C [34]: 11.5%
viability, T/C [35]: 8.36%
viability, T/C [36]: 9.92%
